The values below come from patent US9592224B2, “Substituted benzothiazoles and therapeutic uses thereof for the treatment of human diseases” (CONSEJO SUPERIOR DE INVESTIGACIONES CIENTÍFICAS, priority 2013, dated 2017).

The target of data set [1] is T1, recombinant human enzyme CK-1δ (Homo sapiens, UniProt P48730).
T1 construct: purchased Millipore Iberica SAU
Briefly: Enzyme inhibition assay, Luminometer Kinase-GLO method, CK-1δ. The class given is biochemical. The conditions noted are these: casein substrate, 4 μM ATP, 60 minutes at 30° C.; read-out: Inhibitory Concentration 50 (IC50) CK-1δ. As for the experimental part: (§1) Enzyme inhibition assays were performed using the Luminometer Kinase-GLO® method. Recombinant human enzyme CK-1δ was purchased from Millipore Iberica SAU and recombinant human enzyme CK-1ε was purchased from Invitrogen. The phosphorylation substration chosen was casein. The Luminescent Kinase Kit (catalogue no. V6711) was obtained from Promega. ATP and other reagents were purchased from Sigma-Aldrich (St. Louis, Mo.).
(§2) The assays were conducted in buffer using 96-well plates. In a typical assay: 10 μL of the test compound (dissolved in dimethylsulfoxide at a concentration of 1 mM and, in turn, dissolved in buffer to the required concentration for the experiment) and 10 μL (16 ng) of the CK-1δ enzyme or 10 μL (50 ng) of the CK-1ε enzyme row were added to each well followed by 20 μL of buffer containing 0.1% casein as substrate and 4 μM of ATP. The assay buffer contained: 50 mM HEPES, pH 7.5; 0.01% Brij-35; 10 mM MgCl2; 1 mM EGTA and 0.01% NaN3. […] After incubating for 60 minutes at 30° C., the enzymatic reaction was stopped using 40 μL of Kinase-GLO® reagent. Luminescence was measured after ten minutes using a FLUOstar Optima (BMG Labtechnologies GmbH, Offenburg, Germany) multimode reader. The activity was proportional to the difference between the total and consumed ATP. Inhibition activities were calculated in accordance with the maximum activity measured in the absence of inhibitor. IC50 is defined as the concentration of each compound that reduces enzyme activity by 50% with respect to that obtained without inhibitor.
(Kinase-Glo measures the ATP left after a reaction by luminescence.)

The nature of the next data set: in vitro. The conditions noted are these: pig, pH 7.4; for Papp at […]: PAMPA. As for the experimental part: To filter the samples, PVDF membrane filters (diameter: 30 mm, pore size: 0.45 μm) were used.
Ten reference compounds were selected, whose blood-brain barrier passage is known and public, in order to validate the experiment. […] The solutions were filtered. Next, 180 μL of a PBS/ethanol (70/30) solution were added to each well of the acceptor plate. The donor plate was impregnated with 4 μL of a porcine brain lipid solution dissolved in dodecane (20 mg mL^−1). After 5 min, 180 μL of dissolution of each compound were added to this plate. Of the compounds whose penetration into the central nervous system was to be assessed, between 1-2 mg were taken and dissolved in 1,500 μL of ethanol and 3,500 μL of PBS (pH=7.4), filtered and added to the donor 96-well plate. The donor plate was then placed on the acceptor forming a kind of “sandwich” and allowed to incubate for 2 hours and 30 min at 25° C. The compounds, by passive transport, will move from the donor plate through the porcine brain lipid to the acceptor plate. After 2 hours and 30 min, it was carefully removed from the donor plate. The concentration and absorbance, both of the commercial compounds and the synthesised derivatives evaluated in the acceptor and donor plates were determined using a UV absorbance reader. Each sample was analysed at different wavelengths (3 to 5) in three wells and in at least two independent experiments.
In general terms: In PAMPA a lipid-coated filter parts donor from acceptor wells.

For data set [2], the target named is T2, recombinant human enzyme CK-1ε (Homo sapiens, UniProt P49674).
T2 construct: purchased Invitrogen
Put plainly: Enzyme inhibition assay, Luminometer Kinase-GLO method, CK-1ε. The class given is biochemical. As for the experimental part: as §1, §2

The conditions of data set [3]: literature value, Di et al, 2003; cited from earlier work.

T1 sequence (P48730 whole entry): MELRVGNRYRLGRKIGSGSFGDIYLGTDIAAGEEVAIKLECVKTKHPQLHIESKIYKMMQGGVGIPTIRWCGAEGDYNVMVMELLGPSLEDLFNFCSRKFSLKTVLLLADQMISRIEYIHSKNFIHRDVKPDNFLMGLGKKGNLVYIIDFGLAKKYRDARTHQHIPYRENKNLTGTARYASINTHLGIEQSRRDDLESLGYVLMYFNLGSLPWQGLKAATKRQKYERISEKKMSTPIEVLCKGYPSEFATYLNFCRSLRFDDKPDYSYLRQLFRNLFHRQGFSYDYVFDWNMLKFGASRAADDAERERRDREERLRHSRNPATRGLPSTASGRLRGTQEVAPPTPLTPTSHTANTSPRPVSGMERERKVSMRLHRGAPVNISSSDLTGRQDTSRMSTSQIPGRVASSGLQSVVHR
T2 sequence (P49674 whole entry): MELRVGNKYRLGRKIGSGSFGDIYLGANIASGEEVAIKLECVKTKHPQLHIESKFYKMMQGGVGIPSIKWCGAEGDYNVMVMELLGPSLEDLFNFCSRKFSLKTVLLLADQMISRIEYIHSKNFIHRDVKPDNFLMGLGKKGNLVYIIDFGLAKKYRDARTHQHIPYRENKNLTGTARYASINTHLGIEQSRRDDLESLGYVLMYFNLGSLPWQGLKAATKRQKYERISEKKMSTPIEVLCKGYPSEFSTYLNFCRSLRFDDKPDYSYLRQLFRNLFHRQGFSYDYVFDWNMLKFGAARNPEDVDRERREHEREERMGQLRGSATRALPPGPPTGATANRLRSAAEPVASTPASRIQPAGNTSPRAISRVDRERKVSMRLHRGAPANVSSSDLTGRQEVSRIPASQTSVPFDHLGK

A word on the Papp: it is a coefficient for how fast a substance crosses the barrier. Consider `COc1ccccc1CC(=O)Nc1nc2ccc(C)cc2s1` [Compound 30, N-(6-methylbenzothiazole-2-yl)-2-(2-methoxyphenyl)acetamide], for which the IC50 in data set [1] was 0.29 µM; in data set [2] (casein substrate, 4 μM ATP, 60 minutes at 30° C., read-out: Inhibitory Concentration 50 (IC50) CK-1ε), 4.93 µM. In the data set “in vitro”, this compound yielded an apparent permeability (Papp) at […] of 6.2 ± 0.5 ×10⁻⁶ cm/s.

Usually inhibition stands for how much of the control response was suppressed. In the case of `COc1ccc2nc(NC(=O)Cc3ccccc3OC)sc2c1` [Compound 51, N-(6-methoxybenzothiazole-2-yl)-2-(2-methoxyphenyl)acetamide], in data set [1], the IC50 was determined as 2.22 µM. This compound also yielded a Papp at […] in the data set “in vitro” of 11.2 ± 0.9 ×10⁻⁶ cm/s. Also, the inhibition at 10 µM in data set [2] worked out at 33%.

For the compound `CN1C(C(=O)Nc2ccccn2)=C(O)c2ccccc2S1(=O)=O` [Piroxicam, reference compound], the “Pe (10^−6 cm s^−1) PAMPA-blood-brain barrier permeation” value in the data set “in vitro” ([…]) is on record as 0.2 ± 0.1 10^−6 cm s^−1. In addition, the “Bibl. PAMPA-blood-brain barrier permeation (Pe)” value in data set [3] is given as 2.5 10^−6 cm s^−1.

In “in vitro”, `CN(C)CCCN1c2ccccc2Sc2ccccc21` [Promazine, reference compound] yielded a Papp at […] of 8.5 ± 0.1 ×10⁻⁶ cm/s. In data set [3], the “Bibl. PAMPA-blood-brain barrier permeation (Pe)” value was 8.8 10^−6 cm s^−1.
